pIC50: −log10 of the molar value.
Key:
Assay type in all cases: cell-based
[1] = molecular target: T1, Prostaglandin G/H synthase 2 (Mus musculus, UniProt Q05769); assay: Inhibition of COX2-mediated PGE2 production in LPS-stimulated mouse RAW264.7 cells by ELISA
T1 sequence (Q05769 whole entry): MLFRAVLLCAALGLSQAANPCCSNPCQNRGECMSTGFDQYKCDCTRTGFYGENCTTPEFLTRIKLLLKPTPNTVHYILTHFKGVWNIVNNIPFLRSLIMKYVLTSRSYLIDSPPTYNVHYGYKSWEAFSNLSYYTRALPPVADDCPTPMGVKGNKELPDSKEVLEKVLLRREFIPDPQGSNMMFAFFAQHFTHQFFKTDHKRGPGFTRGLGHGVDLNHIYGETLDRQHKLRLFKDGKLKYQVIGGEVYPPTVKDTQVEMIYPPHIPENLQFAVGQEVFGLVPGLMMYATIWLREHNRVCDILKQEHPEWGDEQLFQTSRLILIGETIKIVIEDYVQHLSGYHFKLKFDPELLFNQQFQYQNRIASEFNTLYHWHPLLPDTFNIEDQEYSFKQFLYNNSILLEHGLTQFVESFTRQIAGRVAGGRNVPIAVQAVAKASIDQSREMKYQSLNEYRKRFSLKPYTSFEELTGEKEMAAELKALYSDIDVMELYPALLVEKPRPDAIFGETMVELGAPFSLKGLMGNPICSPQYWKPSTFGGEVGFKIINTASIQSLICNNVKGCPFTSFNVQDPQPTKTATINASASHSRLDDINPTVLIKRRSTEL

[2] = molecular target: T2, Nitric oxide synthase, inducible (Mus musculus, UniProt P29477); assay: Inhibition of iNOS-mediated NO production in LPS-stimulated mouse RAW264.7 cells by Griess method
T2 sequence (P29477 whole entry): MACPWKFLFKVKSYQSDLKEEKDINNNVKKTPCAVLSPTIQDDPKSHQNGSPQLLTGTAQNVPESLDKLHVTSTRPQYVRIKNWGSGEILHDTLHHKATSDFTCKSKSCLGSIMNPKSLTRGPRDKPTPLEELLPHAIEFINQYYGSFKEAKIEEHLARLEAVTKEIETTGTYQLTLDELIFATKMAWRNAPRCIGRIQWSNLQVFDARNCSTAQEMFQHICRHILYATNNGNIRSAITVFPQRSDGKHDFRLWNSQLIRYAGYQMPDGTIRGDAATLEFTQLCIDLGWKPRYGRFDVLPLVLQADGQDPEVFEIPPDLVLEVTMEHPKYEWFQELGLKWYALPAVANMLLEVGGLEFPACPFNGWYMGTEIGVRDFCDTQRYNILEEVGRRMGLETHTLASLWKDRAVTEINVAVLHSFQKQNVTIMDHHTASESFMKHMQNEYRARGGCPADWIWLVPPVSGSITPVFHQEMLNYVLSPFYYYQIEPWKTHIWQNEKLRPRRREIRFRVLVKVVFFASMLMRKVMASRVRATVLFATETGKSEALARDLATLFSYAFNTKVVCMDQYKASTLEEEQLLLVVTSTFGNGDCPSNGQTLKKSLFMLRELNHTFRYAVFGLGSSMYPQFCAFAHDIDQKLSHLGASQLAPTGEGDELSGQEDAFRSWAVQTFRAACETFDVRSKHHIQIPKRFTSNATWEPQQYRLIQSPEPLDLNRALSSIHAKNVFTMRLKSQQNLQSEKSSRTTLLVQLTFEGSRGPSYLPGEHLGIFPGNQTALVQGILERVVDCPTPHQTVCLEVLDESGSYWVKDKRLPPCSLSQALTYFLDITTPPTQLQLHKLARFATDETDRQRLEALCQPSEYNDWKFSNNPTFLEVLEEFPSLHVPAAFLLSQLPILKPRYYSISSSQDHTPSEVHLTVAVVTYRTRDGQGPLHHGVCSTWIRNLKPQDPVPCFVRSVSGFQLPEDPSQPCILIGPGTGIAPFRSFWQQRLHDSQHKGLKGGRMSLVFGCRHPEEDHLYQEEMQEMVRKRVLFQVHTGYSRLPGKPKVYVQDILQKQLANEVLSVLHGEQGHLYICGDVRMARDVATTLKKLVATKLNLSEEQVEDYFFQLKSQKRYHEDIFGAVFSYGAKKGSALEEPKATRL

[3] = molecular target: T3, Nitric oxide synthase, inducible (Mus musculus) (UniProt P29477); assay: Inhibition of iNOS-mediated NO production in LPS-stimulated mouse RAW264.7 cells at […]
T3 sequence (whole entry): T2 sequence (P29477 whole entry)

| SMILES | pIC50 [1] | pIC50 [2] | inhibition [3] |
| --- | --- | --- | --- |
| COc1ccc(-c2cc(=O)c3cc(Oc4ccc5c(=O)cc(-c6ccccc6)oc5c4)ccc3o2)c(OC)c1 | 5.70 | – | – |
| O=c1cc(-c2ccccc2)oc2cc(Oc3ccc4oc(-c5ccccc5O)cc(=O)c4c3)ccc12 | < 4.30 | – | – |
| O=c1cc(-c2ccc(O)cc2)oc2cc(Oc3ccc4oc(-c5ccc(O)cc5)cc(=O)c4c3)ccc12 | < 4.30 | – | – |
| O=c1cc(-c2ccccc2)oc2cc(Oc3ccc4oc(-c5ccc(O)cc5O)cc(=O)c4c3)ccc12 | < 4.30 | – | – |
| COc1ccc(-c2cc(=O)c3cc(Oc4ccc5c(=O)cc(-c6ccccc6)oc5c4)ccc3o2)cc1 | 5.70 | – | – |
| COc1ccccc1-c1cc(=O)c2cc(Oc3ccc4c(=O)cc(-c5ccccc5)oc4c3)ccc2o1 | < 4.30 | – | – |
| O=c1cc(-c2ccc(O)cc2)oc2cc(Oc3ccc4oc(-c5ccccc5O)cc(=O)c4c3)ccc12 | < 4.30 | 5.00 | – |
| O=c1cc(-c2ccc(O)cc2)oc2ccc(Oc3ccc4c(=O)cc(-c5ccc(O)cc5O)oc4c3)cc12 | < 4.30 | 4.30 | – |
| O=c1cc(-c2ccccc2)oc2cc(Oc3ccc4oc(-c5ccccc5)cc(=O)c4c3)ccc12 | > 5.70 | < 4.30 | – |
| O=c1cc(-c2ccc(O)cc2O)oc2cc(Oc3ccc4oc(-c5ccc(O)cc5O)cc(=O)c4c3)ccc12 | 5.00 | 5.00 | – |
| CC1CCN=C(N)S1 (stereo not drawn) | – | – | 92.5% |
| O=c1cc(-c2ccc(O)cc2)oc2cc(Oc3ccc4oc(-c5ccc(O)cc5O)cc(=O)c4c3)ccc12 | < 4.30 | < 4.30 | – |
| COc1ccc(-c2cc(=O)c3cc(Oc4ccc5c(=O)cc(-c6ccc(OC)cc6OC)oc5c4)ccc3o2)cc1 | < 4.30 | < 4.30 | – |
| COc1ccc(-c2cc(=O)c3ccc(Oc4ccc5oc(-c6ccc(OC)cc6OC)cc(=O)c5c4)cc3o2)cc1 | < 4.30 | < 4.30 | – |
| COc1ccc(-c2cc(=O)c3ccc(Oc4ccc5oc(-c6ccc(OC)cc6OC)cc(=O)c5c4)cc3o2)c(OC)c1 | 4.30 | < 4.30 | – |

Source: ChEMBL document CHEMBL1139311, “Synthesis of biflavones having a 6-O-7'' linkage and effects on cyclooxygenase-2 and inducible nitric oxide synthase” (Bioorg Med Chem Lett, 2009)
